The record followed here is patent publication US9938316B2, “Selective inhibitors of α2 isoform of Na,K-ATPase and use thereof for reduction of intra-ocular pressure and as cardiotonic agents” (priority 2013, dated 2018).

In experiment [1] the target is Na,K-ATPase α2β1 isoform complex (Homo sapiens, UniProt P50993). The experiment can be described thus: biochemical. On the set-up: made in house; host or cells: Pichia pastoris SMD1165. The experiment is classed as biochemical. Particulars: Ki, nM ± SEM α2β1, Table 6. As for the experimental part: (§1) Methods for transformation, culture of P. pastoris clones, protein expression of Na,K-ATPase human isoforms (α1β1, α2β1, α3β1), membrane preparation, solubilization of membranes in DDM, and purification on BD-Talon beads have been described in detail (6-9, 11, 25). In initial experiments the three purified isoform complexes (0.3-0.5 mg/ml) were eluted from the BD-Talon beads in a solution containing Imidazole 170 mM, NaCl 100 mM; Tricine.HCl 20 mM pH 7.4; C12E8, 0.1 mg/ml; SOPS 0.07 mg/ml cholesterol 0.01 mg/ml, glycerol 25%. In later experiments the isoforms complexes were reconstituted with purified FXYD1 on the BD-Talon beads together as described in detail in (10, 11) prior to elution of α1β1FXYD1, α2β1FXYD1 and α3β1FXYD1 complexes. The proteins were stored at −80° C. Protein concentration was determined with BCA (B9643 Sigma).
(§2) Inhibition of Na,K-ATPase activity of the detergent-soluble α1β1, α2β1, and α3β1 complexes by CG's was determined as described (6) using either the αβ or αβFXYD1 complexes. […] The K0.5K was estimated by varying K concentration in a medium containing a fixed total K+choline chloride of 60 mM, and constant NaCl of 140 mM. Curves were fitted to the Hill function v=Vmax*[S]^n/([S]^n+K^n), where S is the K concentration, n is the Hill coefficient and K^n is K0.5K. For comparison of different curves the ratio v/Vmax for each curve was calculated and replotted. In experiments to assess inhibition of Na,K-ATPase activity by cardiac glycosides of the present invention, the percent inhibition VCG/V0 was calculated and Ki values were obtained by fitting the data to the function VCG/V0=Ki/([CG]+Ki)+ c. Inhibition was estimated in 3-8 separate experiments and average Ki values ±SEM were calculated. Significance of differences between Kiα1 and Kiα2 was calculated by the unpaired Student's t-test (p values). […] P values <0.05 were considered significant.

Experiment [2] has as its target Na,K-ATPase α1β1 isoform complex (Homo sapiens, UniProt P05023). The experiment can be described thus: biochemical. On the set-up: made in house; host or cells: Pichia pastoris SMD1165. The settings on record: Ki, nM ± SEM α1β1, Table 6. As for the experimental part:
as §1, §2

Experiment [3] concerns purified α2β1FXYD1 complexes of Na,K-ATPase. Put plainly: Dissociation of cardiac glycosides from the α2β1 isoform complex. The settings on record: α2β1 isoform complex, 37° C. As for the experimental part:
Since the principal isoform in NPE cells is α2 and dissociation from the pump is expected to affect the duration of the effects on IOP, the dissociation rates of different cardiac glycosides from the purified α2β1 isoform were compared.
Purified α2β1FXYD1 complexes (0.3-0.5 mg/ml) were incubated for 30 minutes at 37° C. in a medium containing ATP, 1 mM; NaCl 100 mM; MgCl2, 4 mM Histidine.HCl 25 mM pH 7.4 without (Control) or with 1 μM of different cardiac glycosides. The enzyme solutions were then diluted 100-fold into a medium containing 100 mM NaCl, 5 mM KCl, 1 mM EDTA (Tris), 0.005 mg/ml C12E8, 0.01 mg/ml SOPS, and 0.001 mg/ml cholesterol and incubated at 37° C. for different lengths of time. Aliquots were removed at different times and Na,K-ATPase activity was measured in triplicate over 0.5 minutes (digoxigenin) or 2 minutes (other cardiac glycosides) in the standard activity medium containing 200 μM ATP. The activity of test samples was divided by the activity of the control samples and the time-course for reversal of inhibition was analyzed by fitting the data to the function vt=v∞e^−kt+c. Normalized curves for comparison of different experiments (e.g. as in FIG. 9) were obtained by subtracting the constant value c from each value of the activity and re-fitting the ratio vt/v∞=1−e^−kt.

Experiment [4] concerns intra-ocular pressure (IOP) of rabbits. Put plainly: 4-aminopyridine (4AP)-induced ocular hypertension in rabbits. The class given is in vivo, New Zealand white rabbits. The settings on record: for Time IOP is held at the low level / Time IOP is maintained at the low level: single drop; for Time IOP is maintained at the low level: 1 mM; for Order of relative effects on IOP: all at 0.1 mM, 1.5 hours after 4AP, average of three experiments.

In the case of `CC1CN(C)CCC(OC2C(O)CC(OC3C(O)CC(OC4CCC5(C)C(CCC6C5CC(O)C5(C)C(C7=CC(=O)OC7)CCC65O)C4)OC3C)OC2C)O1` (stereo not drawn) [DMe], the inhibitory constant (Ki) in experiment [1] is 15.3 ± 1.2 nM; in experiment [2] it was 103 ± 5.6 nM. In experiment [3], the “k ± SEM (rate of dissociation)” value is 0.0067 ± 0.004, 3 min^−1. The “Time IOP is held at the low level” value amounted to 2.5 h in experiment [4] (0.2 mM, 4AP every two hours); 4.5 h in experiment [4] (0.5 mM, 4AP every two hours); 5.8 h in experiment [4] (2 mM, 4AP every two hours). Further, in experiment [4] (4AP every two hours), the “Time IOP is maintained at the low level” value is “about 5.5 hours”. Further, in experiment [4], the “Order of relative effects on IOP” value is given as “DGlyN≈DMe≈digoxigenin>digoxin>ouabain”.
With `CC1CN(CC(N)=O)CCC(OC2C(O)CC(OC3C(O)CC(OC4CCC5(C)C(CCC6C5CC(O)C5(C)C(C7=CC(=O)OC7)CCC65O)C4)OC3C)OC2C)O1` (stereo not drawn) [DGlyN], in experiment [3], the “k ± SEM (rate of dissociation)” value is 0.009 ± 0.001, 3 min^−1. In addition, the “Time IOP is maintained at the low level” value in experiment [4] (4AP every two hours) was determined as 3.5 h. Moreover, in experiment [4], the “Order of relative effects on IOP” value was “DGlyN≈DMe≈digoxigenin>digoxin>ouabain”. Also, the “Wash-out time/rate compared with other cardiac glycosides” value in experiment [4] (equal concentrations, 4AP every two hours) is given as “slightly faster than for DMe”.

In general, Ki refers to the equilibrium dissociation constant of an inhibitor or competing ligand from its target. Low values mean a stronger hold on the target, high ones a looser hold on the target.
